Test results reported in patent publication US9102648B1, “Bioavailable diacylhydrazine ligands for modulating the expression of exogenous genes via an ecdysone receptor complex” (Intrexon Corporation, priority 2003, dated 2015).
Like-named read-outs stand apart in the source and are kept apart here.

Experiments:
[1] = molecular target: T1, Bombyx mori EcR (VP16 fusion, CVBE switch construct) (Bombyx mori, UniProt P49881); test: Z3 Assay (HEK-293 cells with CVBE and 6XEcRE LacZ, β-galactosidase reporter); details: for Fold Induction, Z3 Assay, 33 uM: 33 uM ligand, ligand treated / DMSO treated cells; for fold induction at 3.3 µM: HEK293, read-out: Fold Induction, Z3 Assay, 3.3 uM; for fold induction at 33 µM: HEK293, read-out: Fold Induction, Z3 Assay, 33 uM
T1 sequence (P49881 86-606): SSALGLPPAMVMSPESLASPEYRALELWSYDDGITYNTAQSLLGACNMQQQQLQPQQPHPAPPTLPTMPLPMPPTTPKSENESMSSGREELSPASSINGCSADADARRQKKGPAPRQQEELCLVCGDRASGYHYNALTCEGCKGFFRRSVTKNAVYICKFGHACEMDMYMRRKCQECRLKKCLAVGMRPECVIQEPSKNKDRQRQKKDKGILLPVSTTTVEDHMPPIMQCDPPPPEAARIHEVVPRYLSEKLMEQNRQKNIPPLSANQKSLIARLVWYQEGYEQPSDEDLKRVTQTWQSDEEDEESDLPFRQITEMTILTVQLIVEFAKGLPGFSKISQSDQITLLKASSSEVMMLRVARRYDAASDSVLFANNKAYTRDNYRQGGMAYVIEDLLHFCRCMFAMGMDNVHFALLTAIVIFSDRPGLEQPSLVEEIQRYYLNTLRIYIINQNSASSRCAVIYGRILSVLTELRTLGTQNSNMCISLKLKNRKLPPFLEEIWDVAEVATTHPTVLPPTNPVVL
T1 sequence (P19793 1-462 partner): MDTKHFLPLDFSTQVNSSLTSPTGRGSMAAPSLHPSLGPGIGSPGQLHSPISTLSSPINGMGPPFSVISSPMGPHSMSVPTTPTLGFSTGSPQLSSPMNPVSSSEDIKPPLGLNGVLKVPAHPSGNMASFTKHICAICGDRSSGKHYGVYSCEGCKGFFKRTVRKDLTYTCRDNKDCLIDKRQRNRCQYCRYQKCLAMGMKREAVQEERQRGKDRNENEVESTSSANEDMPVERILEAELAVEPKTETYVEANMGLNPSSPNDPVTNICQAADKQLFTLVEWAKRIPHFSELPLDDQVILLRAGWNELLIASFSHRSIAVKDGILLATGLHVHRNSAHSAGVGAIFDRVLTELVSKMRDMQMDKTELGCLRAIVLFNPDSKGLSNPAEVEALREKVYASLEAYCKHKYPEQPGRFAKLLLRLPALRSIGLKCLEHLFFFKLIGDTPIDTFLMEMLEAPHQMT

[2] = molecular target: GAL4 DBD-CfEcR(DEF)/VP16AD-MmRXRE (Choristoneura fumiferana, UniProt O77240); test: 13B3 Assay (CHO stable cell line, luciferase reporter); details: for Fold Induction, 13B3 Assay, 33 uM: 33 uM ligand; for 13B3 assay Rel Max FI: maximum fold induction at any concentration relative to that of GS-E ligand, CHO 13B3 cells; for fold induction at 3.3 µM: read-out: Fold Induction, 13B3 Assay, 3.3 uM; for fold induction at 33 µM: read-out: Fold Induction, 13B3 Assay, 33 uM
Procedure, shortened: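 CHO 13B3 clone stably expressing GAL4 DBD–CfEcR(DEF) and VP16AD–MmRXR(DE) with GAL4 RE–luciferase reporter; cells plated 24 h at 37 °C, then treated with ligands (DMSO stocks diluted 300-fold), 8 concentrations 33–0.01 μM.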

[3] = read-out: Z3 assay EC50, HEK-293 Z3 cells, β-galactosidase reporter, average of two wells
[4] = RLU ligand treated / RLU DMSO treated cells, average of two wells

| SMILES | Fold Induction, Z3 Assay, 33 uM ([1]; average of two wells) | EC50 [1, 3] | Fold Induction, 13B3 Assay, 3.3 uM ([2]; 3.3 uM ligand, RLU ligand treated / RLU DMSO treated cells, average of two wells) | Fold Induction, 13B3 Assay, 33 uM [2, 4] | 13B3 assay Rel Max FI [2] | EC50 ([2]; read-out: 13B3 EC50, CHO 13B3 stable cell line, luciferase reporter, 48 h, average of two wells) | EC50 [1] | fold induction at 3.3 µM [1] | fold induction at 33 µM [1] | EC50 [2] | fold induction at 3.3 µM [2] | fold induction at 33 µM [2] |
| --- | --- | --- | --- | --- | --- | --- | --- | --- | --- | --- | --- | --- |
| Cc1c(C(=O)NN(C(=O)c2cc(F)c(F)cc2F)C(C)(C)C)ccc2c1CCCO2 [RG-115229] | 1032 | 0.427 µM | 599 | 709 | 0.418 | 2.25 µM |  |  |  |  |  |  |
| CCc1ccc(C(=O)NN(C(=O)c2cc(C)cc(C)c2)C(C)(C)C)c(F)c1 [RG-101523, 3,5-Dimethyl-benzoic acid N-tert-butyl-N′-(4-ethyl-2-fluoro-benzoyl)-hydrazide] |  |  |  |  | 0.772 |  | 0.242 µM | 704 | 596 | 2.37 µM | 831 | 718 |
| COc1ccccc1C(=O)N(NC(=O)c1ccc2c(c1)OCCO2)C(C)(C)C [RG-100492] | 143 | 8.13 µM |  | 1002 |  |  |  |  |  |  |  |  |
| CC(C)(C)N(NC(=O)c1ccc(Cl)cc1)C(=O)c1ccccc1 [RG-100864] |  |  |  |  |  |  | 2.24 µM | 63 | 840 | 1.16 µM | 318 | 187 |
